Results published in article PMC10050154, “Coenzyme A binding sites induce proximal acylation across protein families” (Scientific Reports, 2023).

Tests used:
[1] = target: T1, enoyl-CoA hydratase short chain 1 (ECHS1) (Homo sapiens, UniProt P30084); test: LC-MS/MS (DIA) of site-specific lysine succinylation, dose-response; assay type: biochemical
T1 construct: recombinant, purified from E. coli, purchased from Novus Biologicals; homohexamer
T1 sequence (P30084 28-290): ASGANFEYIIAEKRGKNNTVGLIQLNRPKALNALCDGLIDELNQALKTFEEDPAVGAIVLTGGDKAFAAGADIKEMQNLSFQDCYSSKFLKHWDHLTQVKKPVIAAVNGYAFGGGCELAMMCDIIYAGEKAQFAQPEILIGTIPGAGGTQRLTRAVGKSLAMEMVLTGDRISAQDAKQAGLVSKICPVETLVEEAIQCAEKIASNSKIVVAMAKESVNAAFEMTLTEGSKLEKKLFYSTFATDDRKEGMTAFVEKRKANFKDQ

[2] = target: T1, enoyl-CoA hydratase short chain 1 (ECHS1); test: LC-MS/MS of lysine acetylation; assay type: binding; details: covalent (lysine acetylation at K282, K284, K204 near the CoA pocket)

Row | IC50 [1] | SMILES | LC-MS/MS of lysine acetylation [2]
1 | 331 to 1920 µM | CC(C)(COP(=O)(O)OP(=O)(O)OC[C@H]1O[C@@H](n2cnc3c(N)ncnc32)[C@H](O)[C@@H]1OP(=O)(O)O)[C@@H](O)C(=O)NCCC(=O)NCCS [CoA] | –
2 | – | CC(=O)SCCNC(=O)CCNC(=O)[C@H](O)C(C)(C)COP(=O)(O)OP(=O)(O)OC[C@H]1O[C@@H](n2cnc3c(N)ncnc32)[C@H](O)[C@@H]1OP(=O)(O)O [acetyl-CoA] | in ECHS1 induced by acetyl-CoA incubation was inhibited by a 25-molar excess of CoA
